# Test system: active RhoA in MDA-MB-231 cells
# Assay: Active GTPase pull-down (GST-Rhotekin RBD)
# Type: cell-based, human
# Details: 0-3 μM, 1 h
# Protocol: FIG. 5: Cytoskeletal changes induced by IODVA1 treatment. IODVA1 inhibits lamellipodia and circular dorsal ruffle (CDR) formation in MDA-MB-231 cells and decreases Rac activation. (A) IODVA1 inhibits EGF-induced lamellipodia formation in MDA-MB-231 cells. MDA-MB-231 cells were plated on fibronectin-coated coverslips, serum starved for 4 h, incubated with the indicated concentrations of IODVA1 for 1 h, then EGF (50 ng/mL) stimulated, fixed and stained with Phalloidin Alexa Fluor 594 (F-Actin, pseudocolored red) and DAPI (nuclei, pseudocolored blue). […] The percentage of cells with CDRs was counted as the number of cells with CDRs normalized to the total number of cells in the field. Around 150 cells were counted per condition per experiment. Cells with multiple CDRs were counted only once. […] Levels of active Rac (RacGTP, % of control), active Cdc42 (Cdc42GTP, % of control) and active RhoA (RhoAGTP, % of control) were quantified using ImageJ and ImageLab and show combined data as mean±s.e.m. from at least 3 independent experiments. […]
# To confirm that IODVA1 interferes with Rac activation, applicants checked the levels of active Rac and its downstream effector PAK1/2. MDA-MB-231 cells were incubated with IODVA1 (0-3 μM) for 1 h and levels of GTP-bound active Rac were measured by GST-PAK-GBD pull-downs and quantified (FIG. 5C). […]
smiles,measurement,value
"OC1(c2ccccn2)N=C(Nc2nc3ccccc3[nH]2)N=C1c1ccccn1 (stereo not shown) [IODVA1, (Z)-2-((1H-benzo[d]imidazol-2-yl)imino)-4,5-di(pyridin-2-yl)-2,5-dihydro-1H-imidazol-5-ol]",levels of active RhoA,not affected

# Source: US11564913B2, “Compositions and methods for treating cancer” (Children's Hospital Medical Center, priority 2019, dated 2023)
